Results on three compounds are retold here after patent US5521315A, “Olefin substituted long chain compounds” (priority 1993, dated 1996).

Data set [1] deals with polymorphonuclear leukocytes. To be noted: in response to a stimulator of chemotaxis; cited from earlier work.
Another data set has as its system cerebral blood flow. To be noted: in vivo; cited from earlier work.
For the next data set, the system named is PUMP-1. As to the kind of experiment: PUMP-1 activity induced by 100 U/ml of IL-1. It counts as cell-based. Particulars: IL-1 100 U/ml. The text has this: Metalloproteases mediate tissue damage such as glomerular diseases of the kidney, joint destruction in arthritis, and lung destruction in emphysema, and play a role in tumor metastases. Three examples of metalloproteases include a 92 kD type V gelatinase induced by TNF, IL-1 and PDGF plus βFGF, a 72 kD type IV collagenase that is usually constitutive and induced by TNF or IL-1, and a stromelysin/PUMP-1 induced by TNF and IL-1. The inventive compounds can inhibit TNF or IL-1 induction of the 92 kD type V gelatinase inducable metalloprotease. Moreover, the inventive compounds can reduce PUMP-1 activity induced by 100 U/ml of IL-1. […] Accordingly, the inventive compounds prevent induction of certain metalloproteases induced by IL-1 or TNF and are not involved with constitutively produced proteases (e.g., 72 kD type IV collagenase) involved in normal tissue remodeling.

Data set [2] relates to generation of DAG and PA in ras-transformed NIH/3T3 cells. Kind of data set: Serum-stimulated generation of DAG and PA in ras-transformed NIH/3T3 cells. Particulars: pretreatment of cells. It counts as cell-based. The source says:
For example, activating ras mutations result in increased generation of DAG on stimulation with mitogens, although the sources of DAG have differed between experimental systems. In nontransformed renal mesangial cells, IL-1 β stimulation increased PLA2 and LPAAT activation, resulting in generation of sn-2 unsaturated PA and subsequent hydrolysis to DAG by phosphatidate phosphohydrolase. The ras transformation in NIH/3T3 cells upregulates serum-stimulated generation of DAG and PA. The specific species of DAG that is stimulated by serum is dioleoyl and for PA are dilinoleoyl and dioleoyl. […] The inhibition occurs either through suppressing the generation of PA de novo from lysoPA, or through inhibition of one or both arms of the Lands cycle. […] Therefore, the ras transformation mediates an upregulation of PA through indirect stimulation of PLA2 and/or LPAAT activity.

The next data set has as its system LPAAT. As to the kind of experiment: Formation of remodeled PA through the PA/DAG pathway (in vitro). The data set is classed as cell-based. To be noted: high PTX concentrations. The source says: Even in the presence of PTX, cells continue to form PA through the action of PLD, and DAG is also formed through the action of phospholipase C on PC and PI. The latter pathway is not inhibited by the inventive compounds or PTX. In PTX-treated cells, DAG derived from remodeled and PLA-generated PA is diminished (e.g., 1,2-sn-dioleoyl DAG, 1-alkyl,2-linoleoyl DAG and 1-alkyl,2-docosahexaneolyl DAG). Therefore, the inventive compounds and PTX inhibit the formation of only a certain species of PA and DAG by selectively inhibiting a specific second messenger pathway that is only activated in cells by noxious stimuli, but is not used to signal normal cellular housekeeping functions.

For data set [3], the system named is ras-transformed NIH/3T3 cells.
In data set [4] the test system is tumor necrosis factor (TNF). To be noted: cited from earlier work.
Data set [5] concerns CMV promoter activity in transformed (adenovirus) cells. Kind of data set: CMV promoter assay (gene transcription and translation; cytotoxicity in transformed cells). The data set is classed as cell-based. An outline of the steps: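 Reporter assay in adenovirus-transformed cells, reading CMV promoter-driven gene transcription and translation; activity reflects cytotoxic inhibition of cellular protein synthesis machinery.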

The subject of a further data set is mast cell degranulation. Kind of data set: Serotonin release assay (inhibition of mast cell degranulation). To be noted: 50 μM. The data set is classed as cell-based. An outline of the steps: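 Cultured mast cells loaded with 3H-serotonin and sensitized with anti-DNP IgE for 18 h at 37 °C, then triggered with 40 ng/ml DNP-BSA for 45 min with compound in PIPES isotonic buffer pH 7.1.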

The subject of a further data set is human stromal cells. Kind of data set: PDGF-stimulated proliferation of human stromal cells. It counts as cell-based. Particulars: Homo sapiens, 1 h; 50 ng/ml PDGF-BB; drug one hour prior; FIGS. 15 and 16; read-out: IC50, stromal cell proliferation. The method, then:
(§1) This assay is an in vitro model for restenosis and treatment of atherosclerosis and coronary artery disease. Stromal cells were starved in serum-free media for one day and then stimulated with 50 ng/ml PDGF-BB. The drugs were added at the indicated concentrations one hour prior to PDGF stimulation. Tritiated thymidine was added for one day at the time of PDGF stimulation and the cells were harvested and counted by liquid scintillation counting 24 hrs later.
Another assay for measuring activity of the inventive compounds involves determining PDGF (platelet derived growth factor) proliferative response using human-derived stromal cells. […] Two to three days later, the stromal cells are starved in serum-free media. Twenty four hours later, the cells are treated with a stimulating agent, such as PDGF-AA, PDGF-BB or basic FGF (fibroblast growth factor) with or without IL-1α or TNF, and tritiated thymidine. Cell proliferation is determined by liquid scintillation counting.
as §1

In data set [6] the test system is LPS-mediated release of TNF from monocytes in whole blood. Kind of data set: Ex vivo human TNF model (LPS-stimulated whole blood). Particulars: lower doses, FIG. 19. It counts as cell-based. The text has this: FIG. 19 illustrates a comparative experiment comparing CT1508, CT1524, CT1534 and CT2501 in an ex vivo human TNF model described herein. This assay is a predictive model for treatment and prevention of septic shock and sepsis syndrome. This model adds LPS to whole blood (normal human volunteers) to trigger a dose-dependent synthesis and extracellular release of TNF according to Desch et al. (Lymphokine Res. 8:141, 1989). The ex vivo model examines whether LPS-mediated release of TNF from monocytes in whole blood can be blocked by an inventive compound.
This example illustrates a comparative experiment comparing CT1508, CT1524, CT1534 and CT2501 in an ex vivo human TNF model described herein. This assay is a predictive model for treatment and prevention of septic shock and sepsis syndrome. This model adds LPS to whole blood (normal human volunteers) to trigger a dose-dependent synthesis and extracellular release of TNF according to Desch et al. (Lymphokine Res. 8:141, 1989). The ex vivo model examines whether LPS-mediated release of TNF from monocytes in whole blood can be blocked by an inventive compound.

Structures are written as SMILES. Where two headings read alike, the source gives them in different places.

As to `CC(O)CCCCn1c(=O)c2c(ncn2C)n(C)c1=O` (centres unmarked) [M1, 1-(5-hydroxyhexyl)-3,7-dimethylxanthine], the “chemotaxis stimulation” value in data set [1] is recorded as “stimulate chemotaxis in polymorphonuclear leukocytes”. Further, the “cerebral blood flow” value in the data set with cerebral blood flow is on record as “increasing cerebral blood flow”.
Take `CC(=O)CCCCn1c(=O)c2c(ncn2C)n(C)c1=O` [PTX, 1-(5-oxohexyl)-3,7-dimethylxanthine]: the “PUMP-1 activity, % of control levels” value in the data set with PUMP-1 was determined as 95%. Moreover, the “inhibition of DAG/PA generation” value in data set [2] is recorded as “blocks generation of these phospholipid second messengers”. Moreover, the “inhibition of formation of remodeled PA” value in the data set on LPAAT was “blocks formation of remodeled PA through the PA/DAG pathway at high PTX concentrations”. In data set [3], the “cytotoxicity in ras-transformed cells” value was “not associated with significant cytotoxicity”. Further, in data set [3] (vs parental cells), the “inhibition of ras-transformed cells” value was “inhibits ras-transformed NIH/3T3 cells more than parental cells”. Moreover, the “TNF levels” value is “TNF levels were higher among PTX recipients” in data set [4] (normal volunteers) and “decrease tumor necrosis factor (TNF) levels” in data set [4] (with GM-CSF, patients undergoing allogeneic bone marrow transplant). Moreover, in data set [1], the “chemotaxis stimulation” value is given as “stimulate chemotaxis in polymorphonuclear leukocytes”.
The inhibition is the relative decrease from the control value, in per cent. Lower therefore signals a response near the control. With `CC/C=C\CCCCCn1c(=O)c2c(ncn2C)n(C)c1=O` [CT1508, 1-(6-cis-nonenyl)-3,7-dimethylxanthine], the IC50 in [5] was 75 µM; in the data set with human stromal cells it was less than 2 µM. Besides, the “activity in serotonin release assay” value in the data set with mast cell degranulation is “increases the activity”. Also, in the data set with mast cell degranulation (Table 4, average corrected for spontaneous release), the RELEASE-SPONT was 3.38%. The “AVERAGE % RELEASE” value in the data set on mast cell degranulation (Table 4, average of duplicates) came out at 19.94%. This compound displayed an inhibition at 50 µM with mast cell degranulation (Mast cell, Table 4) of 57.9%. The “inhibition of LPS-mediated TNF release” value in data set [6] is reported as “the most effective agent”.
